According to patent EP0786470A1, “PEPTIDE COMPOUND” (SEIKAGAKU KOGYO KABUSHIKI KAISHA, priority 1993, dated 1997):
Where two headings read alike, the source gives them in different places. Where a SMILES comes first, the peptide text is derived from it. [ ]: non-standard residue; d: D form. The star is where a group is joined. Piv = CC(C)(C)C(=O)*; GABA = NCCCC(=O)O

Experiments:
male Wistar rats = test: Inhibition of (±) Bay K8644-induced spontaneous behavior and rearing, drug administered to caudate nucleus putamen (Test Example 3); type: in vivo, rat; details: caudate nucleus putamen administration; for number of spontaneous behavior: induced by (±) Bay K8644 (18.5 µmol/ml), in comparison with the control group (Fig. 5); for inhibition action on number of spontaneous behavior / number of rearing: induced by (±) Bay K8644; for inhibition action on number of spontaneous behavior: compared with PLG (Fig. 5); for number of rearing: compared with PLG (Fig. 6)
From the text: At the same time, the number of rearing was counted. The term rearing as used herein means an action to stand upright solely with hind legs, which is counted by the naked eye.
The number of spontaneous behavior is shown in Fig. 5, and the number of rearing in Fig. 6, both induced by (±) Bay K8644.

Wistar rats [1] = details: for inhibition of the total number of spontaneous behavior observed within 2 hours after administration of methamphetamine: rat, in vivo; for number of spontaneous behavior: tonsillar nucleus administration, 10 µmol/ml at 2.7 µl/min for 2 minutes, after 30 minutes of methamphetamine 1.0 mg/kg i.p., control about 1,250 counts
Procedure: (§1) Wistar rats (250 to 300 g) were anesthetized with pentobarbital (50 mg/kg, i.p.) and their parietal regions were shaved off and the head was respectively fixed on a rat brain fixing apparatus. After incising the scalp, a hole of 1 to 1.2 mm was made in the cranial bones using an electric drill, and a stainless steel guide cannula of 1 to 1.2 mm in diameter and 23 mm in length was inserted into the hole and fixed to the cranial bones with dental cement. As the insertion position of the guide cannula, co-ordinates of tonsillar nucleus (A: -1.3 mm, L: 3.4 mm and V: 8.6 mm from bregma) were selected with reference to the brain illustrations of Paxions and Watson. Rats were reared for 1 week after the operation and then used in the test.
(§2) Drug-free physiological saline containing 13% ethanol (vehicle) was used as a control in the same manner.

Wistar rats [2] = details: for number of spontaneous behavior: caudate nucleus putamen administration
Procedure: as §1, §2

[3] = after 30 minutes of methamphetamine 1.0 mg/kg i.p.

SMILES | number of spontaneous behavior (male Wistar rats) | inhibition action on number of spontaneous behavior (male Wistar rats) | number of rearing (male Wistar rats) | inhibition of the total number of spontaneous behavior observed within 2 hours after administration of methamphetamine (Wistar rats [1]) | number of spontaneous behavior (Wistar rats [1]) | number of spontaneous behavior (Wistar rats [2]; after 75 minutes of methamphetamine 1.0 mg/kg i.p.) | site selectivity (Wistar rats [2]; caudate nucleus putamen versus tonsillar nucleus administration) | number of spontaneous behavior (Wistar rats [2]; 10 µmol/ml at 2.7 µl/min for 2 minutes, after 15 minutes of methamphetamine 1.0 mg/kg i.p.) | number of spontaneous behavior (Wistar rats [2]; [3])
CC(C)C[C@H](NC(=O)[C@@H](CO)NC(=O)C(C)(C)C)C(=O)NCCCC(=O)O [PDSLG, Piv-D-Ser-Leu-GABA] (Piv-[dS]-Leu-[GABA]-OH) | decreased | stronger than that of PLG | definitely strong inhibition effect in comparison with PLG | about 25% | about 820 counts | about 300 counts | stronger action on caudate nucleus putamen | – | –
CC(C)C[C@H](NC(=O)C(C)(C)C)C(=O)NCCCC(=O)O [PLG, Piv-Leu-GABA, reference compound] | decreased | – | – | – | about 750 counts | – | – | about 650 counts | about 600 counts
CC(C)C[C@H](NC(=O)[C@H](CO)NC(=O)C(C)(C)C)C(=O)NCCCC(=O)O [PSLG, Piv-L-Ser-Leu-GABA] (Piv-Ser-Leu-[GABA]-OH) | decreased | stronger than that of PLG | definitely strong inhibition effect in comparison with PLG | about 25% | about 900 counts | – | – | – | about 600 counts
